According to ChEMBL document CHEMBL3885881, “DrugMatrix”:

Organism: Rattus norvegicus
Assay: DrugMatrix - Regimen: Daily Repeat
Type: toxicity, organism-based, Sprague-Dawley
Parameters: regimen Daily Repeat, gender Male, age 6-8 weeks
Conditions: in vivo, po, route oral GAVAGE, vehicle 100 % SALINE; for ABSOLUTE BASOPHIL / ABSOLUTE EOSINOPHIL / ABSOLUTE LYMPHOCYTE / ABSOLUTE MONOCYTE / ABSOLUTE SEGMENTED NEUTROPHIL / BASOPHIL / EOSINOPHIL / ERYTHROCYTE COUNT / HEMATOCRIT / HEMOGLOBIN / LEUKOCYTE COUNT / LYMPHOCYTE / MEAN CORPUSCULAR HEMOGLOBIN / MEAN CORPUSCULAR HEMOGLOBIN CONCENTRATION / MEAN CORPUSCULAR VOLUME / MONOCYTE / NEUTROPHIL / NUCLEATED RED BLOOD CELLS / PLATELET COUNT: tissue Blood; for ALANINE AMINOTRANSFERASE / ALBUMIN / ALKALINE PHOSPHATASE / ASPARTATE AMINOTRANSFERASE / BLOOD UREA NITROGEN / CARBON DIOXIDE / CHLORIDE / CHOLESTEROL / CREATINE PHOSPHOKINASE / CREATININE / GLUCOSE / LACTATE DEHYDROGENASE / LIPASE / PHOSPHORUS / POTASSIUM / SODIUM / TOTAL BILIRUBIN / TOTAL PROTEIN / URIC ACID: tissue Plasma
[1] = 0 mg/kg, 72 h, dose level Control, time 3 day
[2] = 0 mg/kg, 120 h, dose level Control, time 5 day
[3] = 34 mg/kg, 72 h, dose level High, time 3 day
[4] = 34 mg/kg, 120 h, dose level High, time 5 day

CCN(CC)N=O [N-NITROSODIETHYLAMINE]
ABSOLUTE BASOPHIL [1]: 0 CELLS/uL | ABSOLUTE EOSINOPHIL [1]: 0 CELLS/uL | ABSOLUTE LYMPHOCYTE [1]: 8960.83 CELLS/uL | ABSOLUTE MONOCYTE [1]: 103.5 CELLS/uL | ABSOLUTE SEGMENTED NEUTROPHIL [1]: 635.67 CELLS/uL | BASOPHIL [1]: 0% | EOSINOPHIL [1]: 0% | ERYTHROCYTE COUNT [1]: 5.09 x10E6/uL | HEMATOCRIT [1]: 31.8% | HEMOGLOBIN [1]: 12.42 G/DL | LEUKOCYTE COUNT [1]: 9.7 x10E3/uL | LYMPHOCYTE [1]: 92.33% | MEAN CORPUSCULAR HEMOGLOBIN [1]: 24.4 pg | MEAN CORPUSCULAR HEMOGLOBIN CONCENTRATION [1]: 39.07 G/DL | MEAN CORPUSCULAR VOLUME [1]: 62.47 fL | MONOCYTE [1]: 1% | NEUTROPHIL [1]: 6.67% | NUCLEATED RED BLOOD CELLS [1]: 0 /100WBC | PLATELET COUNT [1]: 466.5 x10E3/uL | ALANINE AMINOTRANSFERASE [1]: 83.33 u/L | ALBUMIN [1]: 4.33 G/DL | ALKALINE PHOSPHATASE [1]: 340.5 u/L | ASPARTATE AMINOTRANSFERASE [1]: 189.83 u/L | BLOOD UREA NITROGEN [1]: 15.83 mg/dL | CARBON DIOXIDE [1]: 38 mmol/L | CHLORIDE [1]: 96.83 MEQ/L | CHOLESTEROL [1]: 72.5 mg/dL | CREATINE PHOSPHOKINASE [1]: 370.67 u/L | CREATININE [1]: 0.28 mg/dL | GLUCOSE [1]: 182.83 mg/dL | LACTATE DEHYDROGENASE [1]: 513.5 u/L | LIPASE [1]: 9.83 u/L | PHOSPHORUS [1]: 11.32 mg/dL | POTASSIUM [1]: 6.32 MEQ/L | SODIUM [1]: 145.12 MEQ/L | TOTAL BILIRUBIN [1]: 0.2 mg/dL | TOTAL PROTEIN [1]: 6.4 G/DL | URIC ACID [1]: 2.03 mg/dL | ABSOLUTE BASOPHIL [2]: 0 CELLS/uL | ABSOLUTE EOSINOPHIL [2]: 43.83 CELLS/uL | ABSOLUTE LYMPHOCYTE [2]: 7316.67 CELLS/uL | ABSOLUTE MONOCYTE [2]: 87.33 CELLS/uL | ABSOLUTE SEGMENTED NEUTROPHIL [2]: 418.83 CELLS/uL | BASOPHIL [2]: 0% | EOSINOPHIL [2]: 0.33% | ERYTHROCYTE COUNT [2]: 4.77 x10E6/uL | HEMATOCRIT [2]: 29.93% | HEMOGLOBIN [2]: 11.48 G/DL | LEUKOCYTE COUNT [2]: 7.87 x10E3/uL | LYMPHOCYTE [2]: 93.5% | MEAN CORPUSCULAR HEMOGLOBIN [2]: 24.17 pg | MEAN CORPUSCULAR HEMOGLOBIN CONCENTRATION [2]: 38.57 G/DL | MEAN CORPUSCULAR VOLUME [2]: 62.68 fL | MONOCYTE [2]: 1% | NEUTROPHIL [2]: 5.17% | NUCLEATED RED BLOOD CELLS [2]: 0 /100WBC | PLATELET COUNT [2]: 377.67 x10E3/uL | ALANINE AMINOTRANSFERASE [2]: 89 u/L | ALBUMIN [2]: 4.42 G/DL | ALKALINE PHOSPHATASE [2]: 275.17 u/L | ASPARTATE AMINOTRANSFERASE [2]: 204.17 u/L | BLOOD UREA NITROGEN [2]: 15.33 mg/dL | CARBON DIOXIDE [2]: 36.83 mmol/L | CHLORIDE [2]: 94.67 MEQ/L | CHOLESTEROL [2]: 92 mg/dL | CREATINE PHOSPHOKINASE [2]: 514.5 u/L | CREATININE [2]: 0.24 mg/dL | GLUCOSE [2]: 184.17 mg/dL | LACTATE DEHYDROGENASE [2]: 648.67 u/L | LIPASE [2]: 10 u/L | PHOSPHORUS [2]: 12.33 mg/dL | POTASSIUM [2]: 6.51 MEQ/L | SODIUM [2]: 144.63 MEQ/L | TOTAL BILIRUBIN [2]: 0.18 mg/dL | TOTAL PROTEIN [2]: 6.7 G/DL | URIC ACID [2]: 2.33 mg/dL | ABSOLUTE BASOPHIL [3]: 0 CELLS/uL | ABSOLUTE EOSINOPHIL [3]: 38.67 CELLS/uL | ABSOLUTE LYMPHOCYTE [3]: 8206.67 CELLS/uL | ABSOLUTE MONOCYTE [3]: 88.33 CELLS/uL | ABSOLUTE SEGMENTED NEUTROPHIL [3]: 499.67 CELLS/uL | BASOPHIL [3]: 0% | EOSINOPHIL [3]: 0.33% | ERYTHROCYTE COUNT [3]: 6.73 x10E6/uL | HEMATOCRIT [3]: 41.13% | HEMOGLOBIN [3]: 15.77 G/DL | LEUKOCYTE COUNT [3]: 8.83 x10E3/uL | LYMPHOCYTE [3]: 93.33% | MEAN CORPUSCULAR HEMOGLOBIN [3]: 23.47 pg | MEAN CORPUSCULAR HEMOGLOBIN CONCENTRATION [3]: 38.37 G/DL | MEAN CORPUSCULAR VOLUME [3]: 61.23 fL | MONOCYTE [3]: 1% | NEUTROPHIL [3]: 5.33% | NUCLEATED RED BLOOD CELLS [3]: 0 /100WBC | PLATELET COUNT [3]: 912.67 x10E3/uL | ALANINE AMINOTRANSFERASE [3]: 112.33 u/L | ALBUMIN [3]: 4.2 G/DL | ALKALINE PHOSPHATASE [3]: 292.67 u/L | ASPARTATE AMINOTRANSFERASE [3]: 218.67 u/L | BLOOD UREA NITROGEN [3]: 13 mg/dL | CARBON DIOXIDE [3]: 38.67 mmol/L | CHLORIDE [3]: 96.33 MEQ/L | CHOLESTEROL [3]: 79.33 mg/dL | CREATINE PHOSPHOKINASE [3]: 309.67 u/L | CREATININE [3]: 0.53 mg/dL | GLUCOSE [3]: 161.33 mg/dL | LACTATE DEHYDROGENASE [3]: 311 u/L | LIPASE [3]: 9.67 u/L | PHOSPHORUS [3]: 11.2 mg/dL | POTASSIUM [3]: 6.34 MEQ/L | SODIUM [3]: 146.93 MEQ/L | TOTAL BILIRUBIN [3]: 0.2 mg/dL | TOTAL PROTEIN [3]: 6.03 G/DL | URIC ACID [3]: 2.2 mg/dL | ABSOLUTE BASOPHIL [4]: 0 CELLS/uL | ABSOLUTE EOSINOPHIL [4]: 0 CELLS/uL | ABSOLUTE LYMPHOCYTE [4]: 7416.33 CELLS/uL | ABSOLUTE MONOCYTE [4]: 148.33 CELLS/uL | ABSOLUTE SEGMENTED NEUTROPHIL [4]: 435.33 CELLS/uL | BASOPHIL [4]: 0% | EOSINOPHIL [4]: 0% | ERYTHROCYTE COUNT [4]: 6.58 x10E6/uL | HEMATOCRIT [4]: 41.63% | HEMOGLOBIN [4]: 15.6 G/DL | LEUKOCYTE COUNT [4]: 8 x10E3/uL | LYMPHOCYTE [4]: 94% | MEAN CORPUSCULAR HEMOGLOBIN [4]: 23.7 pg | MEAN CORPUSCULAR HEMOGLOBIN CONCENTRATION [4]: 37.47 G/DL | MEAN CORPUSCULAR VOLUME [4]: 63.27 fL | MONOCYTE [4]: 1.67% | NEUTROPHIL [4]: 4.33% | NUCLEATED RED BLOOD CELLS [4]: 0 /100WBC | PLATELET COUNT [4]: 607 x10E3/uL | ALANINE AMINOTRANSFERASE [4]: 90.67 u/L | ALBUMIN [4]: 3.93 G/DL | ALKALINE PHOSPHATASE [4]: 310.33 u/L | ASPARTATE AMINOTRANSFERASE [4]: 148 u/L | BLOOD UREA NITROGEN [4]: 13 mg/dL | CARBON DIOXIDE [4]: 37 mmol/L | CHLORIDE [4]: 95.67 MEQ/L | CHOLESTEROL [4]: 85.67 mg/dL | CREATINE PHOSPHOKINASE [4]: 246 u/L | CREATININE [4]: 0.16 mg/dL | GLUCOSE [4]: 139.33 mg/dL | LACTATE DEHYDROGENASE [4]: 200 u/L | LIPASE [4]: 13 u/L | PHOSPHORUS [4]: 11.33 mg/dL | POTASSIUM [4]: 6.73 MEQ/L | SODIUM [4]: 144.83 MEQ/L | TOTAL BILIRUBIN [4]: 0.23 mg/dL | TOTAL PROTEIN [4]: 5.43 G/DL | URIC ACID [4]: 1.9 mg/dL
